Consider 39 compounds from ChEMBL document CHEMBL6092192 (J Med Chem, 2024).

The subject of assay [1] is SW620/AD300. Put plainly: Cytotoxicity against multidrug resistant human SW620/AD300 cells assessed as survival rate at 4 uM measured after 72 hrs by MTT assay relative to control. The format is functional. As to conditions: read-out: Survival. On the technique in general: Tetrazolium assays rely on reduction of a dye to a coloured formazan, in cell work by metabolically active cells.

The subject of assay [2] is SW620/AD300. Put plainly: Reversal of paclitaxel resistance in human SW620/AD300 cells assessed as reversal fold by measuring ratio of paclitaxel IC50 to paclitaxel IC50 in presence of test compound incubated for 72 hrs by MTT assay. The class given is functional.
In assay [3] the test system is SW-620. Put plainly: Cytotoxicity against human SW620 cells measured after 72 hrs by MTT assay. The class given is functional, cell-based. Conditions: SW-620, 72 h.
Assay [4] relates to SW620/AD300. Put plainly: Cytotoxicity against multidrug resistant human SW620/AD300 cells measured after 72 hrs by MTT assay. The format is functional, cell-based. As to conditions: SW620/AD300, 72 h.
The next assay deals with KB-C2. Put plainly: Cytotoxicity against human KB-C2 cells measured after 72 hrs by MTT assay. As to conditions: KB-C2, 72 h. The format is functional, cell-based.
Assay [5] deals with HEK293. Put plainly: Cytotoxicity against HEK293 cells harbouring ABCB1 measured after 72 hrs by MTT assay. The class given is functional, cell-based. Conditions: Homo sapiens, HEK293, 72 h.
For assay [6], the system named is SW-620. Put plainly: Reversal of paclitaxel resistance in human SW620 cells assessed as reversal fold by measuring ratio of paclitaxel IC50 to paclitaxel IC50 in presence of test compound at 4 uM incubated for 72 hrs by MTT assay. The format is functional.
Assay [7] deals with HEK293. Put plainly: Cytotoxicity against HEK293 cells transfected with pcDNA3.1 measured after 72 hrs by MTT assay. As to conditions: Homo sapiens, HEK293, 72 h. The class given is functional, cell-based.
For a further assay, the system named is KB 3-1. Put plainly: Cytotoxicity against human KB 3-1 cells measured after 72 hrs by MTT assay. The format is functional, cell-based. As to conditions: KB 3-1, 72 h.

For `Cc1cc(=O)n2nc(SCc3cc(=O)oc4c3ccc3ccccc34)nc2[nH]1`, the viability at 4 µM in the assay with SW620/AD300 [1] worked out at 97.1%. The “Ratio IC50” value with SW620/AD300 [2] turned out to be 57.6.
The corresponding values for `Cc1cc(=O)n2nc(SCc3ccc([N+](=O)[O-])cc3)nc2[nH]1` are 93.2% and 7.08.
The corresponding values for `Cc1cc(=O)n2ncnc2[nH]1` are 97.6% and 5.4.
The corresponding values for `O=c1c2c([nH]c3nc(SCc4nc5ccccc5[nH]4)nn13)CCC2` are 94.7% and 69.68.
Turning to `O=c1c2c([nH]c3nc(SCc4ccccc4)nn13)CCC2`, the viability at 4 µM in the assay on SW620/AD300 [1] stood at 94.7%. The “Ratio IC50” value in the assay on SW620/AD300 [2] is listed as 25.41.
In the case of `Cc1cc(=O)n2nc(SCc3ccc(Br)cc3)nc2[nH]1`, the viability at 4 µM in the assay with SW620/AD300 [1] is 94.9%. For the same compound, in the assay on SW620/AD300 [2], the “Ratio IC50” value came out at 10.29.
For the compound `Cc1cc(=O)n2nc(SCc3ccc(F)cc3)nc2[nH]1`, the viability at 4 µM in the assay with SW620/AD300 [1] turned out to be 99.4%. In addition, the “Ratio IC50” value with SW620/AD300 [2] amounted to 14.9.
As for `Cc1cc(=O)n2nc(SCC3CCCCC3)nc2[nH]1`, the viability at 4 µM in the assay on SW620/AD300 [1] is 92.6%. Also, the “Ratio IC50” value with SW620/AD300 [2] was 6.
With `O=c1c2c([nH]c3nc(SCc4csc5ccc(Cl)cc45)nn13)CCC2`, in the assay on SW620/AD300 [1], the viability at 4 µM is 98.8%. Further, the “Ratio IC50” value in the assay with SW620/AD300 [2] was 56.1.
Consider `Cc1cc(=O)n2c(nc3ccccc32)[nH]1`, for which the viability at 4 µM in the assay on SW620/AD300 [1] came to 96.2%. Moreover, the “Ratio IC50” value in the assay with SW620/AD300 [2] is reported as 1.09.
With `C#CCSc1nc2[nH]c3c(c(=O)n2n1)CCC3`, the viability at 4 µM in the assay with SW620/AD300 [1] is 96.9%. Besides, the “Ratio IC50” value in the assay on SW620/AD300 [2] was determined as 24.
The corresponding values for `O=c1c2c([nH]c3ncnn13)CSC2` are 97.7% and 8.
`Cc1cc(=O)n2c(C#N)c(C#N)nc2[nH]1`: in the assay with SW620/AD300 [1], the viability at 4 µM turned out to be 97.5%. For the same compound, the “Ratio IC50” value in the assay with SW620/AD300 [2] came to 1.38.
`Cc1cc(=O)n2nc(SCc3ccc(Cl)cc3)nc2[nH]1`: the viability at 4 µM in the assay with SW620/AD300 [1] worked out at 94.5%. For the same compound, the “Ratio IC50” value in the assay on SW620/AD300 [2] is 13.94.
The matching figures for `COC(=O)c1nc2[nH]c3c(c(=O)n2n1)CCC3`: 94.7% and 20.57.
The corresponding values for `COc1ccc(CSc2nc3[nH]c(C)cc(=O)n3n2)cc1` are 93.6% and 33.49.
With `CC(=O)O[C@H]1C(=O)[C@@]2(C)[C@H]([C@H](OC(=O)c3ccccc3)[C@]3(O)C[C@H](OC(=O)[C@H](O)[C@@H](NC(=O)c4ccccc4)c4ccccc4)C(C)=C1C3(C)C)[C@]1(OC(C)=O)CO[C@@H]1C[C@@H]2O` [PACLITAXEL], the IC50 in the assay with SW-620 [3] stood at 6.55 nM; in the assay with SW620/AD300 [4], 4320 nM; in the assay with KB-C2, 2090 nM; with HEK293 [5] it was 106 nM; in the assay on HEK293 [7], 2.08 nM; in the assay with KB 3-1, 4.32 nM. In addition, the “Ratio IC50” value in the assay on SW-620 [6] is 1.03.
For the compound `Cc1cc(=O)n2nc(SCc3nc4ccccc4s3)nc2[nH]1`, the viability at 4 µM in the assay on SW620/AD300 [1] amounted to 97.2%. In addition, in the assay with SW620/AD300 [2], the “Ratio IC50” value is recorded as 60.85.
Consider `C#CCSc1nc2[nH]c(C)cc(=O)n2n1`, for which the viability at 4 µM in the assay with SW620/AD300 [1] was found to be 97.2%. Further, in the assay on SW620/AD300 [2], the “Ratio IC50” value was found to be 4.6.
The matching figures for `CC(C)c1cc(=O)n2ncnc2[nH]1`: 95.7% and 1.39.
Consider `CCCCCc1c(C)[nH]c2ncnn2c1=O`, for which the viability at 4 µM in the assay with SW620/AD300 [1] was 98.6%. The “Ratio IC50” value with SW620/AD300 [2] stood at 1.
The matching figures for `O=c1cc(C2CC2)[nH]c2ncnn12`: 92.5% and 1.36.
The matching figures for `O=c1c2c([nH]c3ncnn13)CCC2`: 96.2% and 13.94.
The matching figures for `Cc1cc(=O)n2nccc2[nH]1`: 93.9% and 2.81.
As to `Cc1cc(=O)n2nc(SCc3ccc(Cl)c(F)c3)nc2[nH]1`, the viability at 4 µM with SW620/AD300 [1] was 97.6%. Also, in the assay with SW620/AD300 [2], the “Ratio IC50” value was determined as 18.
For `COC(=O)c1nc2[nH]c(C)cc(=O)n2n1`, the viability at 4 µM in the assay with SW620/AD300 [1] came out at 97.9%. Also, the “Ratio IC50” value in the assay on SW620/AD300 [2] stood at 4.5.
The matching figures for `Cc1cc(=O)n2nc(SCc3cccc4ccccc34)nc2[nH]1`: 97.8% and 24.27.
Regarding `Cc1[nH]c2ncnn2c(=O)c1C`, in the assay with SW620/AD300 [1], the viability at 4 µM came out at 93.8%. Also, the “Ratio IC50” value with SW620/AD300 [2] is 4.36.
The matching figures for `O=c1cc(-c2ccccc2)[nH]c2ncnn12`: 99% and 1.03.
On to `Cc1cc(=O)n2nc(SCc3ccc(C(F)(F)F)cc3)nc2[nH]1`, for which the viability at 4 µM in the assay with SW620/AD300 [1] turned out to be 97.6%. Further, the “Ratio IC50” value in the assay with SW620/AD300 [2] was 4.08.
Take `O=c1c2c([nH]c3ncnn13)CCCCC2`: the viability at 4 µM in the assay on SW620/AD300 [1] was found to be 95.3%. Also, in the assay on SW620/AD300 [2], the “Ratio IC50” value is 3.57.
Take `O=c1c2c([nH]c3ncnn13)COC2`: in the assay with SW620/AD300 [1], the viability at 4 µM was 98%. In addition, the “Ratio IC50” value with SW620/AD300 [2] is on record as 6.75.
The corresponding values for `O=c1cc(C(F)F)[nH]c2ncnn12` are 92.4% and 1.06.
The corresponding values for `O=c1c2c([nH]c3ncnn13)CCCC2` are 94.7% and 6.45.
`Cc1cc(=O)n2nc(SCc3csc4ccc(Cl)cc34)nc2[nH]1`: the viability at 4 µM with SW620/AD300 [1] came out at 94.6%. For the same compound, in the assay with SW620/AD300 [2], the “Ratio IC50” value is 18.
Consider `Cc1cc(=O)n2nc(SCc3ccccc3)nc2[nH]1`, for which the viability at 4 µM in the assay on SW620/AD300 [1] was determined as 95%. Moreover, in the assay on SW620/AD300 [2], the “Ratio IC50” value is on record as 10.8.
The matching figures for `CCc1cc(=O)n2ncnc2[nH]1`: 95.9% and 1.83.
On to `Cc1cc(=O)n2nc(SCc3nc4ccccc4[nH]3)nc2[nH]1`, for which the viability at 4 µM with SW620/AD300 [1] stood at 96.8%. Besides, the “Ratio IC50” value in the assay on SW620/AD300 [2] is 44.54.
For `CCOC(=O)CCc1c(C)[nH]c2ncnn2c1=O`, the viability at 4 µM with SW620/AD300 [1] was 94.2%. The “Ratio IC50” value with SW620/AD300 [2] is 1.03.

Usually IC50 stands for the concentration that inhibits the measured activity by half.
